Our source for the IC50 values is patent publication US12441679B2, “Acrylamide-substituted indane compounds and therapeutic use thereof” (Sanofi, priority 2020, dated 2025).

In one test the test system is YAP1-TEAD and TAZ-TEAD activity (TEAD responsive promoter element). The experiment in a line: TEAD-Luciferase Reporter Assay (8XGTIIC-Luciferase construct stably integrated in tumor cell lines). Type of test: cell-based, human. The conditions noted are these: 8XGTIIC-Luciferase reporter in tumor cell lines, 48 hrs compound treatment, 10 doses 1-10000 nM. From the text: TEAD-Luciferase Reporter Assay
Luciferase-based gene reporter assays were used, employing the TEAD responsive promoter element that are stably integrated to different human tumor cell lines in order to monitor YAP1-TEAD and TAZ-TEAD activity and to study YAP1/TAZ-TEAD activity modulation by small molecule compounds. Luciferase-based gene reporter assays employing the GAPDH promoter element and stably integrated to different human tumor cell lines are used as counter screen control cell lines.
Tumor cell lines with stable integration of the 8XGTIIC-Luciferase construct (Dupont et al., Nature 2011) or the GAPDH-Luciferase control plasmid, are seeded in culture medium in 96-well plates at a density of 8000 cells/well. Following an overnight incubation in a 37° C., 5% CO2 growth chamber, cells are treated with compounds described above at 10 doses ranging between 1 and 10000 nM for 48 hrs. After compound incubation, cells are lysed with Bright-Glo Luciferase Assay System (Promega E2620) and luciferase activity is measured using a luminescent plate reader.
The inhibitory activity of the compounds with respect to luciferase activity is given by the concentration which inhibits 50% of activity of non-treated cells. IC50s are determined with a nonlinear regression model on XLfit software analysis (IDBS, UK).
(In general: A reporter such as luciferase makes a cellular process visible.)
What is called IC50 is the point on the concentration scale where inhibition reaches its midpoint. Compound “(R)—N-(1-((3-(trifluoromethyl)phenyl)amino)-2,3-dihydro-1H-inden-5-yl)acrylamide [Example 2]” came in with an IC50 of 0.038 µM. Still for that read-out and setting: under “(S)—N-(1-((3-(trifluoromethyl)phenyl)amino)-2,3-dihydro-1H-inden-5-yl)acrylamide [Example 3]” stands 0.109 µM.

In turn, “(S)—N-(1-((4-fluorophenyl)amino)-2,3-dihydro-1H-inden-5-yl)acrylamide [Example 6]” had a 50% inhibitory concentration (IC50) of 0.031 µM.

The test is the same for the next values; noted with them: Homo sapiens; 8XGTIIC-Luciferase reporter in tumor cell lines, 48 hrs compound treatment, 10 doses 1-10000 nM.
`C=CC(=O)Nc1ccc2c(c1)C(Oc1cccc(C)c1)CC2` (centres unmarked) [Example 79, N-(3-(m-tolyloxy)-2,3-dihydro-1H-inden-5-yl)acrylamide] came in with an IC50 of 8.67 µM. Same read-out and setting: to `C=CC(=O)Nc1ccc2c(c1)C(Oc1cccc(SC)c1)CC2` (centres unmarked) [Example 80, N-(3-(3-(methylthio)phenoxy)-2,3-dihydro-1H-inden-5-yl)acrylamide] belongs 0.3 µM; to `C=CC(=O)Nc1ccc2c(c1)C(Oc1cccc(C3CC3)c1)CC2` (centres unmarked) [Example 81, N-(3-(3-cyclopropylphenoxy)-2,3-dihydro-1H-inden-5-yl)acrylamide], 0.117 µM.

In the case of `C=CC(=O)Nc1ccc2c(c1)CCC2Oc1ccc(C(F)(F)F)cc1` (centres unmarked) [Example 82, N-(1-(4-(trifluoromethyl)phenoxy)-2,3-dihydro-1H-inden-5-yl)acrylamide], half-maximal inhibition (IC50) required 0.031 µM. In the case of `C=CC(=O)N(C)c1ccc2c(c1)CCC2Oc1ccc(C(F)(F)F)cc1` (centres unmarked) [Example 83, N-methyl-N-(1-(4-(trifluoromethyl)phenoxy)-2,3-dihydro-1H-inden-5-yl)acrylamide], the IC50 turned out to be 0.109 µM.

On to `C=CC(=O)Nc1ccc2c(c1)C(Oc1ccc(C(F)(F)F)cn1)CC2` (centres unmarked) [Example 88, N-[3-[[5-(trifluoromethyl)pyridin-2-yl]oxy]-2,3-dihydro-1H-inden-5-yl]acrylamide], for which the IC50 was determined as 0.051 µM. Turning to `C=CC(=O)N(C)c1ccc2c(c1)CCC2Oc1cccc(C(F)(F)F)c1` (centres unmarked) [Example 89, N-methyl-N-(1-(3-(trifluoromethyl)phenoxy)-2,3-dihydro-1H-inden-5-yl)acrylamide], the concentration for half-maximal inhibition (IC50) is 1.06 µM. For the compound `C=CC(=O)Nc1ccc2c(c1)C(Nc1ccc(C(F)(F)F)cc1)C(F)C2` (centres unmarked) [Example 90, N-[2-fluoro-3-[4-(trifluoromethyl)anilino]-2,3-dihydro-1H-inden-5-yl]acrylamide], the half-inhibitory concentration (IC50) was 0.084 µM. Take `C=CC(=O)Nc1ccc2c(c1)C(Nc1cccc(C(F)(F)F)c1)C(F)C2` (centres unmarked) [Example 91, N-(2-fluoro-3-((3-(trifluoromethyl)phenyl)amino)-2,3-dihydro-1H-inden-5-yl)acrylamide]: the IC50 was 0.209 µM. For the compound `C=CC(=O)Nc1ccc2c(c1)C(Oc1ccc(C(F)(F)F)cc1)C(F)C2` (centres unmarked) [Example 92, N-[2-fluoro-3-[4-(trifluoromethyl)phenoxy]-2,3-dihydro-1H-inden-5-yl]acrylamide], it took 0.095 µM to reach half-maximal inhibition (IC50). The same measure, in the same setting: to `C=CC(=O)N(C)c1ccc2c(c1)CC(C)C2Nc1cccc(C(F)(F)F)c1` (centres unmarked) [Example 93, N-methyl-N-(2-methyl-1-((3-(trifluoromethyl)phenyl)amino)-2,3-dihydro-1H-inden-5-yl)acrylamide] belongs 0.513 µM.
